Values quoted from earlier work as cited in patent US8211842B2, “Preventive and/or curative agent for cleaning materials that are brought into contact with water” (priority 2006, dated 2012).

Key:
Conditions in all cases: standard AFNOR NF T 72-151
[1] = test system: Mycobactenum smegmatis 7326
[2] = test system: Staphylococcus aureus 53164
[3] = test system: Escherichia coli 54127
[4] = test system: Streptococcus faecalis 5855
[5] = test system: Pseudomonas aeruginosa A22

Measured: dose effective as a bactericide

CCCCCCCCCC[N+](C)(C)CCCCCCCCCC.[Cl-] [didecyl dimethylammonium chloride]
50 ppm: all assays above
